Results on one compound are retold here after patent publication US20220177902A1, “LOW-METHANE RICE” (priority 2019, published 2022).

The test concerns methanogens. In words: Methanogen propagation upon fumarate treatment of rice (qPCR methanogen determination). Conditions: SUSIBA2 rice and Nipponbare rice treated with fumarate for two weeks (from Week 6 to Week 8), groups Mst, MET, Msc, MBT, MMB, Arc. As to the method:
FIG. 12. Response of methanogen propagation of different groups upon fumarate treatment for two weeks (from Week 6 to Week 8). Mst (Methanosaetaceae), MET (methanogens), Msc (Methanosarcinaceae), MBT (Methanobacteriales), MMB (Methanomicrobiales), Arc (archaea), and Met for Methanocella-specific.
Quantitative PCR was performed for both methanogen determination and rice gene expression in the same way as described in Su et al. (2015).
CRISPR/Cas technology was used to successfully delete the yin transcription factor (sucrose-response region) in the yin-yang system (Jin et al. (2017)) in rice to achieve larger panicles (FIG. 11). The increased panicle size meant that more carbon was reallocated to the panicles, which in turn led to less carbon to fumarate section from roots below ground.
For orientation: Real-time PCR tracks product formation cycle by cycle.

For the compound `O=C(O)/C=C/C(=O)O` [fumarate], the “Response of methanogen propagation of different groups upon fumarate treatment” value is reported as “all methanogen groups propagated”.
